Tests used:
[1] = biological target: T1, myosin ATPase, Porcine Ventricle myofibrils (Sus scrofa, UniProt P79293); experiment: Myofibril ATPase assay, porcine ventricle myofibrils; type: biochemical, porcine (Yucatan minipigs); details: concentration required to reduce myosin ATP-ase activity by 25%; Porcine Ventricle Prep pCa 25 GEOM_MEAN
T1 construct: Myofibrils from porcine cardiac muscle was isolated from the left ventricle of Yucatan minipigs; tissue Exemplar Genetics; host or cells: left ventricle of Yucatan minipigs, myofibrils
Experimental: (§1) Myofibril ATPase assays are known in the art to be useful in evaluating small molecules for the treatment of HCM and other cardiac indications. Myosin ATPase activity is assessed by using a coupled reaction system, in which ADP generated by the myosin ATPase function is coupled to the disappearance of NADH through the pyruvate kinase/lactate dehydrogenase (PK-LDH) system. ATPase activity produces ADP, which is used as a substrate for PK to produce pyruvate and regenerate ATP. The pyruvate is then used as a substrate by LDH to oxidize NADH to NAD+. The rate of the reaction is monitored through the time-dependent disappearance of NADH using absorbance at 340 nm, which, when the couple system is in stoichiometric excess, is directly correlated to the ATPase activity of the myosin. Inhibition of ATPase activity by the assayed compounds is indicated by a reduced rate of NADH loss, relative to vehicle-treated controls, over the experimental time window. Porcine Ventricle are the primary sources of myofibril material.
(§2) Materials: The following stock solutions and reagents were used in the Myofibril ATPase Assay: Stock Solutions; PIPES, 200 mM and 120 mM in H2O, pH 7.0; MgCl2 in H2O, 200 mM; PM12 Buffer, 10×: 120 mM PIPES (from 200 mM stock), 20 mM MgCl2 (from 200 mM stock); PBS Buffer, 1X: 135 mM NaCl, […], 10 mM Na(PO4)2, 1.8 mM K2(PO4), pH 7.4; EGTA in H2O, 250 mM; CaCl2) in H2O, 500 mM; DTT in H2O, 1 M; BSA in H2O, 10 mg/mL; ATP in 1×PBS, 50 mM; NADH in 1X PM12 and 1 mM DTT, 26 mM; PEP in 1X PM12, 78 mM, pH 7.0.
(§3) Stock Solutions of pCa buffer. Combine PIPES, CaCl2, and EGTA solutions with water. Adjust pH to 7.0 and bring final volume to 100 mL.
(§4) Buffer A & Buffer B. Prepare buffers A and B according to the table below.
(§5) Myofibril ATPase Assay Procedure: BSA, ATP, NADH, PEP, and DTT solutions were thawed at room temperature, then transferred to ice. Pellet-frozen myofibrils were transferred with approximately twice the required volume into a sufficiently large tube and capped. Myofibrils were thawed by rolling in a water bath for approximately 15 min at room temperature and cooled on ice. Buffers A and B were prepared by adjusting volumes as necessary for required number of wells and stored on ice. 0.5 μL of the compounds to be assayed were added into wells. 25 μL of Buffer A was dispensed into the wells, followed by 25 μL of Buffer B. The wells were measured for absorbance at 340 nm, using a kinetic protocol in which the wells are read every 1.5-2 min for 75 min. Assay data analysis was performed using a python script that filtered the raw data to retain those points falling between a starting and ending time and between a maximum and minimum absorbance, then used the filtered time-domain 340 nm absorbance data in each well to calculate a slope via linear regression analysis in units of mAU/min. Compound slopes were normalized between 100% and 0% activity, where 100% represented the slope of wells containing only compound vehicle, and fit to a 4-parameter logistic model. In addition to the fit parameters, the EC25% values were calculated, relative to the 100% normalized value. Additionally, the Y125 values were calculated for compounds that increased myosin ATP-ase activity. Fit parameters, calculated effective concentrations, filtered raw data, and calculated slopes were exported, in addition to compound-specific graphs of normalized ATPase activity versus concentration in μM. Each value reported in Table 8 is either a Y75 value or a Y125 value. Values without pound sign, #, are Y75 values, which reflect the concentration required to reduce myosin ATP-ase activity by 25% (e.g., Y-axis activity value is 75% of initial value), relative to myosin ATP-ase activity in the absence of exogenous compound. […]

[2] = tested on: myosin ATPase, Porcine Atria myofibrils; experiment: Myofibril ATPase assay, porcine atria myofibrils; type: biochemical; details: concentration required to reduce myosin ATP-ase activity by 25%; Porcine Atria Prep pCa 25 GEOM_MEAN
[3] = tested on: myosin ATPase, Rabbit Psoas myofibrils; experiment: Myofibril ATPase assay, rabbit psoas (skeletal) myofibrils; type: biochemical; details: concentration required to reduce myosin ATP-ase activity by 25%; Rabbit Psoas Prep pCa 25 GEOM_MEAN
Experimental: [Worded in the source for another species; this species is reported under the same test.] as §1, §2, §3, §4, §5

T1 sequence (P79293 whole entry): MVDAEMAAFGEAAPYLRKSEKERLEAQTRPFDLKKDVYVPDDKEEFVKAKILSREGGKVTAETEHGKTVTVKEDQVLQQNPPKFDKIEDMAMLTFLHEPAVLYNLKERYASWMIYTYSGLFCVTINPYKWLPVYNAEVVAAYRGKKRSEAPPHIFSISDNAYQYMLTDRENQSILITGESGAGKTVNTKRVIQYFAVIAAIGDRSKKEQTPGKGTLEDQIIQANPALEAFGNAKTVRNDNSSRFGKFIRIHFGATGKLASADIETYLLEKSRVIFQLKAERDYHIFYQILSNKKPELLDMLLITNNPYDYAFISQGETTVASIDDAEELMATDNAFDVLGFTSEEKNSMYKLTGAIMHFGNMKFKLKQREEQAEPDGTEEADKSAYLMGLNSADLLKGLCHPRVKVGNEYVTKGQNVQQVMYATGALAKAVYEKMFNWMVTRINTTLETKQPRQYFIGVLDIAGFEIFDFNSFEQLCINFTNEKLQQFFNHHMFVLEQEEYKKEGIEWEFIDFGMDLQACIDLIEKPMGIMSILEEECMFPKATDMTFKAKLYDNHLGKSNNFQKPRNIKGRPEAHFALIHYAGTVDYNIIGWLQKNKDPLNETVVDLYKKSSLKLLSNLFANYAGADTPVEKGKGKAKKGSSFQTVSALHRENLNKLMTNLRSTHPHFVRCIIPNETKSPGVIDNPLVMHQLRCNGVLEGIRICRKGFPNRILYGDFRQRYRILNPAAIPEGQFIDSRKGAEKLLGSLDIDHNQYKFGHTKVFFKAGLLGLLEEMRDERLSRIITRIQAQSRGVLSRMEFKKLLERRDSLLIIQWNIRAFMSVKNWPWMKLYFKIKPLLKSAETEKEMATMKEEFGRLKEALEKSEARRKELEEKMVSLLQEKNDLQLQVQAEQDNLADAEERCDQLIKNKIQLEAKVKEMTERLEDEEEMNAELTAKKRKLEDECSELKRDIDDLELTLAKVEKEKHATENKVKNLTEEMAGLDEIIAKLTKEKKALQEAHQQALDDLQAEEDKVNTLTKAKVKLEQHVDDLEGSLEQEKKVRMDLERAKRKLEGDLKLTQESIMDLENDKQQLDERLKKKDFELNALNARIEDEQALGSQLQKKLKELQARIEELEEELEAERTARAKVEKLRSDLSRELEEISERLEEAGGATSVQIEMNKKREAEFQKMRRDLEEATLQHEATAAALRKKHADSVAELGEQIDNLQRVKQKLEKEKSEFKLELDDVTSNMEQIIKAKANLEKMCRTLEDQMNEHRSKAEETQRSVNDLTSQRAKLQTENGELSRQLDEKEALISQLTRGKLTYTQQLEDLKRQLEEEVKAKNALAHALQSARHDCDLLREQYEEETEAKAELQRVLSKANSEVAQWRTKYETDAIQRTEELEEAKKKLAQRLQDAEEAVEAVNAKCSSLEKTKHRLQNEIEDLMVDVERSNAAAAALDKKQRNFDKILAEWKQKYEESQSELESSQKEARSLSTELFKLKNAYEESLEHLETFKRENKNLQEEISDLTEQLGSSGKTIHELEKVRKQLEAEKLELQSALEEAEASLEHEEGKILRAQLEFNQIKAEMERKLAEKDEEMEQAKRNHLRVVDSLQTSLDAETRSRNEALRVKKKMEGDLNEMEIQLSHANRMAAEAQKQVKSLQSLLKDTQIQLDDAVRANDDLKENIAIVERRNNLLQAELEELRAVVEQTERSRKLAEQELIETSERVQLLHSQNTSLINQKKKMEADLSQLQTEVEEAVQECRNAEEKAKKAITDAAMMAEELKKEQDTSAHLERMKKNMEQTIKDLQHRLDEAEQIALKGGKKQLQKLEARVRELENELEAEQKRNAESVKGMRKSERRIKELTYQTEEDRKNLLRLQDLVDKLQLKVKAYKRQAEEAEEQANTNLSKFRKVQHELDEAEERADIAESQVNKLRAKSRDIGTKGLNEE

Row | SMILES | Porcine Ventricle EC25 (Y75 value) [1] [µM] | Porcine Atria EC25 (Y75 value) [2] [µM] | Rabbit Psoas EC25 (Y75 value) [3] [µM]
1 | CCC(NC(=O)Cn1c(=O)[nH]c2ccccc2c1=O)c1ccc(F)cc1F (centres unmarked) [Compound 71, N-(1-(2,4-difluorophenyl)propyl)-2-(2,4-dioxo-1,4-dihydroquinazolin-3(2H)-yl)acetamide] | 53.2 | 12.67 | 3.86
2 | C[C@H](NC(=O)[C@H](C)n1c(=O)[nH]c2ccccc2c1=O)c1ccc(F)cc1F (single isomer, unassigned) [Compound 102] | 99.13 | 1.175 | 0.761
3 | C[C@@H](NC(=O)Cn1c(=O)[nH]c2ccccc2c1=O)c1ccc(Cl)cc1 (single isomer, unassigned) [Compound 526] | 100 | 100 | 100
4 | CC[C@H](NC(=O)Cn1c(=O)[nH]c2ccccc2c1=O)c1ccc(F)cc1F (single isomer, unassigned) [Compound 49] | 100 | 100 | 100
5 | C[C@@H](NC(=O)Cn1c(=O)[nH]c2ccccc2c1=O)c1ccncc1F (single isomer, unassigned) [Compound 100] | 100 | 31.84 | 12.272
6 | C[C@H](NC(=O)Cn1c(=O)[nH]c2cccc(O)c2c1=O)c1ccc(F)cc1F [Compound 72, (S)-N-(1-(2,4-difluorophenyl)ethyl)-2-(5-hydroxy-2,4-dioxo-1,4-dihydroquinazolin-3(2H)-yl)acetamide] | 0.2524 | 0.1151 | 0.019
7 | Cc1c(F)ccc2[nH]c(=O)n(CC(=O)N[C@@H]3CCc4cc(C#N)cnc43)c(=O)c12 (single isomer, unassigned) [Compound 9] | 0.547 | 0.078 | 0.631
8 | C[C@H](NC(=O)[C@H](C)n1c(=O)[nH]c2cccc(O)c2c1=O)c1ccc(F)cc1F (single isomer, unassigned) [Compound 35] | 1.64 | 0.0835 | 0.086
9 | Cc1c(F)ccc2[nH]c(=O)n(CC(=O)N[C@H]3CCc4cc(C#N)cnc43)c(=O)c12 [Compound 10, (S)-N-(3-cyano-6,7-dihydro-5H-cyclopenta[b]pyridin-7-yl)-2-(6-fluoro-5-methyl-2,4-dioxo-1,4-dihydroquinazolin-3(2H)-yl)acetamide] | 100 | 100 | 100
10 | C[C@H](NC(=O)Cn1c(=O)[nH]c2cccc(Cl)c2c1=O)c1ccc(F)cc1F [Compound 136, (S)-2-(5-chloro-2,4-dioxo-1,4-dihydroquinazolin-3(2H)-yl)-N-(1-(2,4-difluorophenyl)ethyl)acetamide] | 0.256 | – | 0.591
11 | C[C@H](NC(=O)Cn1c(=O)[nH]c2ccccc2c1=O)c1ccc(F)cc1F [Compound 167, (S)-N-(1-(2,4-difluorophenyl)ethyl)-2-(2,4-dioxo-1,4-dihydroquinazolin-3(2H)-yl)acetamide] | 7.022 | – | 0.52

The next lines start with the values.

Row | Porcine Ventricle EC25 (Y75 value) [1] [µM] | Porcine Atria EC25 (Y75 value) [2] [µM] | Rabbit Psoas EC25 (Y75 value) [3] [µM] | SMILES
12 | – | – | 100 | O=C(Cn1c(=O)[nH]c2ccccc2c1=O)NCc1ccccn1 [Compound 5005, 2-(2,4-dioxo-1,4-dihydroquinazolin-3(2H)-yl)-N-(pyridin-2-ylmethyl)acetamide]
13 | 100 | 100 | 100 | CC(NC(=O)Cn1c(=O)[nH]c2ccccc2c1=O)C1CCCC1 (centres unmarked) [Compound 605, N-(1-cyclopentylethyl)-2-(2,4-dioxo-1,4-dihydroquinazolin-3(2H)-yl)acetamide]
14 | 100 | 100 | 100 | O=C(Cn1c(=O)[nH]c2ccccc2c1=O)NCc1ccc(F)cc1F [Compound 5009, N-(2,4-difluorobenzyl)-2-(2,4-dioxo-1,4-dihydroquinazolin-3(2H)-yl)acetamide]
15 | 0.51 | 0.18 | – | Cc1ccc2[nH]c(=O)n(CC(=O)N[C@@H](C)c3ncc(C#N)cc3F)c(=O)c2c1F (single isomer, unassigned) [Compound 3004]
16 | – | – | 100 | O=C(Cn1c(=O)[nH]c2ccccc2c1=O)NCCc1ccccc1Cl [Compound 5008, N-(2-chlorophenethyl)-2-(2,4-dioxo-1,4-dihydroquinazolin-3(2H)-yl)acetamide]
17 | – | – | 100 | C[C@H](NC(=O)Cn1c(=O)[nH]c2ccccc2c1=O)c1cccc2ccccc12 (single isomer, unassigned) [Compound 5002]
18 | – | – | 100 | O=C(Cn1c(=O)[nH]c2ccccc2c1=O)NCc1ccncc1 [Compound 5007, 2-(2,4-dioxo-1,4-dihydroquinazolin-3(2H)-yl)-N-(pyridin-4-ylmethyl)acetamide]
19 | 0.24 | 0.11 | – | C[C@H](NC(=O)Cn1c(=O)[nH]c2ccc(F)c(C#N)c2c1=O)c1ncc(C#N)cc1F (single isomer, unassigned) [Compound 3002]
20 | 63.05 | 1.32 | – | Cc1ccc2[nH]c(=O)n(CC(=O)N[C@H](C)c3ncc(C#N)cc3F)c(=O)c2c1F (single isomer, unassigned) [Compound 3003]
21 | – | – | 100 | CC(NC(=O)Cn1c(=O)[nH]c2ccccc2c1=O)C1CN(C)CCO1 (centres unmarked) [Compound 5001, 2-(2,4-dioxo-1,4-dihydroquinazolin-3(2H)-yl)-N-(1-(4-methylmorpholin-2-yl)ethyl)acetamide]
22 | – | – | 100 | CC(NC(=O)Cn1c(=O)[nH]c2ccccc2c1=O)C1CCCCC1 (centres unmarked) [Compound 5003, N-(1-cyclohexylethyl)-2-(2,4-dioxo-1,4-dihydroquinazolin-3(2H)-yl)acetamide]
23 | 100.00 | 5.34 | – | C[C@@H](NC(=O)Cn1c(=O)[nH]c2ccc(F)c(C#N)c2c1=O)c1ncc(C#N)cc1F (single isomer, unassigned) [Compound 3001]
24 | – | – | 100 | O=C(Cn1c(=O)[nH]c2ccccc2c1=O)NCc1ccc(Cn2cccn2)cc1 [Compound 5004, N-(4-((1H-pyrazol-1-yl)methyl)benzyl)-2-(2,4-dioxo-1,4-dihydroquinazolin-3(2H)-yl)acetamide]
25 | – | – | 100 | O=C(Cn1c(=O)[nH]c2ccccc2c1=O)NCc1cccnc1 [Compound 5006, 2-(2,4-dioxo-1,4-dihydroquinazolin-3(2H)-yl)-N-(pyridin-3-ylmethyl)acetamide]

Source: patent US12559464B2, “Quinazolinone dione compounds and uses thereof” (Edgewise Therapeutics, Inc., priority 2023, dated 2026)
